The structures appear in SMILES notation. Read-outs that look alike come from different tables or passages of the source. Where only a bound is given, the exact number is not on record here.

Assay [1] concerns A2780 human ovarian carcinoma cell line. The experiment in a line: MTT antiproliferative assay, A2780. The conditions noted are these: mean ± SD of three independent experiments, read-out: IC50 (72 h) А2780. In kind it is cell-based. For orientation: Tetrazolium assays rely on reduction of a dye to a coloured formazan, in cell work by metabolically active cells.
Protocol: (§1) The in vitro antiproliferative activity of the synthesized Ru-organometallic compounds and several starting ligands was evaluated against three human cell lines using the MTT assay. We selected a small panel of cell lines that provided insights into the efficacy and potential therapeutic utility of the compounds. The panel includes the A2780 human ovarian carcinoma cell line, which is sensitive to cisplatin, its cisplatin-resistant counterpart, A2780cis, also a non-malignant human embryonic kidney cell line, HEK293. The use of A2780 and A2780cis paired cell lines allowed us to directly assess the ability of the compounds to overcome resistance mechanisms. The inclusion of the HEK293 cell line can give us preliminary indication of selectivity against non-cancerous cells. Cisplatin, a clinically used drug, was used as a positive control in all experiments. All studies were performed in triplicate and repeated in three independent experiments.
(§2) The human A2780 ovarian adenocarcinoma, A2780cis cisplatin resistant ovarian adenocarcinoma, HEK293 human embryonic kidney cell lines were obtained from the European collection of authenticated cell cultures (ECACC; Salisbury, UK). Cells were grown in a RPMI 1640 (Gibco™, Cork, Ireland) cell medium (A2780, A2780cis), or DMEM (Gibco™, Ireland) cell medium (HEK293) supplemented with 10% fetal bovine serum (Gibco™, São Paulo, Brazil). The cells were cultured in an incubator at 37 °C in a humidified 5% CO2 atmosphere and were subcultured two times a week. The antiproliferative activity was studied by MTT assays as published previously [38].
In assay [2] the test system is A2780cis cisplatin resistant ovarian adenocarcinoma. The experiment in a line: MTT antiproliferative assay, A2780cis.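 As to all read-outs here: antiproliferative MTT assay with 72 h exposure on cisplatin-resistant A2780cis versus parent A2780 cells, cisplatin as positive control, triplicate wells in each of three independent experiments.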 The settings on record: for Rf resistance coefficient: IC50 on A2780cis divided on IC50 on A2780; for IC50: MTT, 72 h incubation, mean ± SD of three independent experiments. The assay is classed as cell-based, human.
Protocol: as §1, §2
Assay [3] has as its system HEK293 human embryonic kidney cell line. In words: MTT antiproliferative assay, HEK293.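 As to all read-outs here: cells grown at 37 °C under humidified 5% CO2, cisplatin run alongside as positive control, each test in triplicate wells.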 The conditions noted are these: for Selectivity Index, SI: IC50 on HEK293 divided on IC50 on A2780; for IC50: MTT, 72 h incubation, mean ± SD of three independent experiments. In kind it is cell-based.
Protocol: as §1, §2
Where [4] appears, read: Homo sapiens, A2780, 72 h incubation.

With `N.N.[Cl][Pt][Cl]` [Cisplatin, reference compound], the IC50 in assay [1] (72 h incubation) turned out to be 2640 ± 350 nM; in assay [3] it was 22000 nM. Moreover, in assay [2], the Rf resistance coefficient is recorded as 5.9. Moreover, the “Selectivity Index, SI” value in assay [3] came to 8.3.
Take `Fc1ccc(/N=C/c2ccccc2)cc1` [Compound 1b]: the IC50 was over 200000 nM in assay [1] (setting [4]); over 100000 nM in assay [2] (Homo sapiens, A2780cis); 21600 nM in assay [3] (Homo sapiens, HEK293).
For `CCOC(=O)c1ccc(/N=C/c2ccccc2)cc1` [Compound 1g], the IC50 was 42100 nM in assay [1] (setting [4]); over 100000 nM in assay [2] (Homo sapiens, A2780cis); 25400 nM in assay [3] (Homo sapiens, HEK293).
As for `C1=[N+](c2ccccc2)[Ru-4]23([c]4ccccc41)([n+]1ccccc1-c1cccc[n+]12)[n+]1ccccc1-c1cccc[n+]13.F[P-](F)(F)(F)(F)F` [Compound 3a, Bis(2,2′-bipiridine)[N-((phenyl-κC^2)methyliden]aniline-κN]ruthenium(II) hexafluorophosphate], the IC50 in assay [1] (72 h incubation) is 33 ± 7 nM. In assay [2], the Rf resistance coefficient is listed as 0.9 and 30 ± 10 nM corresponded to half-maximal inhibition (IC50). Further, in assay [3], the “Selectivity Index, SI” value is listed as 1.6 and the midpoint of inhibition, the IC50, lay at 53 ± 4 nM.
Regarding `F[P-](F)(F)(F)(F)F.Fc1ccc([N+]2=Cc3cccc[c]3[Ru-4]234([n+]2ccccc2-c2cccc[n+]23)[n+]2ccccc2-c2cccc[n+]24)cc1` [Compound 3b, Bis(2,2′-bipiridine)[N-((phenyl-κC^2)methyliden]-4-fluoroaniline-κN]ruthenium(II) hexafluorophosphate], the IC50 in assay [1] (72 h incubation) was 90 ± 30 nM. In assay [2], this molecule had a Rf resistance coefficient of 2.8 and an IC50 of 250 ± 60 nM. Further, in assay [3], the “Selectivity Index, SI” value was 1.1 and the IC50 is 100 ± 30 nM.
Regarding `Cc1ccc([N+]2=Cc3cccc[c]3[Ru-4]234([n+]2ccccc2-c2cccc[n+]23)[n+]2ccccc2-c2cccc[n+]24)cc1.F[P-](F)(F)(F)(F)F` [Compound 3c, Bis(2,2′-bipiridine)[N-((phenyl-κC^2)methyliden]-4-methylaniline-κN]ruthenium(II) hexafluorophosphate], the IC50 in assay [1] (72 h incubation) was 70 ± 6 nM. In assay [2], this molecule registered a Rf resistance coefficient of 1.7 and an IC50 of 120 ± 10 nM. Besides, in assay [3], the “Selectivity Index, SI” value is given as 1.0 and inhibition was half-maximal at 70 ± 10 nM (IC50).
The matching figures for `CCc1ccc([N+]2=Cc3cccc[c]3[Ru-4]234([n+]2ccccc2-c2cccc[n+]23)[n+]2ccccc2-c2cccc[n+]24)cc1.F[P-](F)(F)(F)(F)F` [Compound 3d, Bis(2,2′-bipiridine)[N-((phenyl-κC^2)methyliden]-4-ethylaniline-κN]ruthenium(II) hexafluorophosphate]: 45 ± 5 nM, 3.3, 150 ± 10 nM, 1.8 and 80 ± 10 nM.
Taken in the same sequence, the figures for `CC(C)(C)c1ccc([N+]2=Cc3cccc[c]3[Ru-4]234([n+]2ccccc2-c2cccc[n+]23)[n+]2ccccc2-c2cccc[n+]24)cc1.F[P-](F)(F)(F)(F)F` [Compound 3e, Bis(2,2′-bipiridine)[N-((phenyl-κC^2)methyliden]-4-(tert-butyl)aniline-κN]ruthenium(II) hexafluorophosphate] were 70 ± 30 nM, 2.4, 170 ± 30 nM, 1.0 and 68 ± 6 nM.
Taken in the same sequence, the figures for `COc1ccc([N+]2=Cc3cccc[c]3[Ru-4]234([n+]2ccccc2-c2cccc[n+]23)[n+]2ccccc2-c2cccc[n+]24)cc1.F[P-](F)(F)(F)(F)F` [Compound 3f, Bis(2,2′-bipiridine)[N-((phenyl-κC^2)methyliden]-4-methoxyaniline-κN]ruthenium(II) hexafluorophosphate] were 65 ± 4 nM, 1.8, 120 ± 40 nM, 1.0 and 64 ± 7 nM.
With `CCOC(=O)c1ccc([N+]2=Cc3cccc[c]3[Ru-4]234([n+]2ccccc2-c2cccc[n+]23)[n+]2ccccc2-c2cccc[n+]24)cc1.F[P-](F)(F)(F)(F)F` [Compound 3g, Bis(2,2′-bipiridine)[N-((phenyl-κC^2)methyliden]-4-ethoxycarbonylaniline-κN]ruthenium(II) hexafluorophosphate], the IC50 in assay [1] (72 h incubation) came to 100 ± 20 nM. In assay [2], this molecule registered a Rf resistance coefficient of 2.3 and an IC50 of 230 ± 20 nM. For the same molecule, in assay [3], the “Selectivity Index, SI” value is reported as 1.4 and inhibition was half-maximal at 140 ± 20 nM (IC50).
With `F[P-](F)(F)(F)(F)F.O=[N+]([O-])c1ccc([N+]2=Cc3cccc[c]3[Ru-4]234([n+]2ccccc2-c2cccc[n+]23)[n+]2ccccc2-c2cccc[n+]24)cc1` [Compound 3h, Bis(2,2′-bipiridine)[N-((phenyl-κC^2)methyliden]-4-nitroaniline-κN]ruthenium(II) hexafluorophosphate], the IC50 in assay [1] (72 h incubation) stood at 250 ± 30 nM. In assay [2], this molecule registered a Rf resistance coefficient of 3.0 and an IC50 of 760 ± 80 nM. For the same molecule, in assay [3], the “Selectivity Index, SI” value turned out to be 1.5 and the IC50 is 370 ± 80 nM.
The matching figures for `FC(F)(F)c1ccc([N+]2=Cc3cccc[c]3[Ru-4]234([n+]2ccccc2-c2cccc[n+]23)[n+]2ccccc2-c2cccc[n+]24)cc1.F[P-](F)(F)(F)(F)F` [Compound 3i, Bis(2,2′-bipiridine)[N-((phenyl-κC^2)methyliden]-4-(trifluoromethyl)aniline-κN]ruthenium(II) hexafluorophosphate]: 80 ± 10 nM, 3.0, 240 ± 20 nM, 1.3 and 107 ± 8 nM.
Taken in the same sequence, the figures for `F[P-](F)(F)(F)(F)F.Fc1ccc([N+]2=Cc3scc[c]3[Ru-4]234([n+]2ccccc2-c2cccc[n+]23)[n+]2ccccc2-c2cccc[n+]24)cc1` [Compound 3j, Bis(2,2′-bipiridine)[N-((thiophene-2-yl-κC^2)methyliden]-4-fluoroaniline-κN]ruthenium(II) hexafluorophosphate] were 43 ± 3 nM, 2.1, 91 ± 9 nM, 1.4 and 60 ± 10 nM.
As for `Cc1ccc([N+]2=Cc3scc[c]3[Ru-4]234([n+]2ccccc2-c2cccc[n+]23)[n+]2ccccc2-c2cccc[n+]24)cc1.F[P-](F)(F)(F)(F)F` [Compound 3k, Bis(2,2′-bipiridine)[N-((thiophene-2-yl-κC^2)methyliden]-4-methylaniline-κN]ruthenium(II) hexafluorophosphate], the results for the IC50 in assay [1] (72 h incubation), in assay [2] and in assay [3] were 30 ± 2 nM, 10 ± 0.4 nM and 70 ± 30 nM, respectively. In assay [2], the Rf resistance coefficient came out at 0.3. For the same molecule, the “Selectivity Index, SI” value in assay [3] came out at 2.3.
`COc1ccc([N+]2=Cc3scc[c]3[Ru-4]234([n+]2ccccc2-c2cccc[n+]23)[n+]2ccccc2-c2cccc[n+]24)cc1.F[P-](F)(F)(F)(F)F` [Compound 3l, Bis(2,2′-bipiridine)[N-((thiophene-2-yl-κC^2)methyliden]-4-methoxyaniline-κN]ruthenium(II) hexafluorophosphate]: the concentration for half-maximal inhibition (IC50) in assay [1] (72 h incubation) was determined as 39 ± 3 nM; in assay [2] it was 39 ± 10 nM; in assay [3], 40 ± 10 nM. The molecule further registered a Rf resistance coefficient in assay [2] of 1.0. Also, in assay [3], the “Selectivity Index, SI” value is 1.0.
In the case of `CCOC(=O)c1ccc([N+]2=Cc3scc[c]3[Ru-4]234([n+]2ccccc2-c2cccc[n+]23)[n+]2ccccc2-c2cccc[n+]24)cc1.F[P-](F)(F)(F)(F)F` [Compound 3m, Bis(2,2′-bipiridine)[N-((thiophene-2-yl-κC^2)methyliden]-4-ethoxycarbonylaniline-κN]ruthenium(II) hexafluorophosphate], in assay [1] (72 h incubation), the IC50 is 57 ± 20 nM. In assay [2], this molecule had a Rf resistance coefficient of 1.5 and an IC50 of 84 ± 12 nM. Moreover, in assay [3], the “Selectivity Index, SI” value amounted to 2.5 and the IC50 is 140 ± 10 nM.
The matching figures for `F[P-](F)(F)(F)(F)F.O=[N+]([O-])c1ccc([N+]2=Cc3scc[c]3[Ru-4]234([n+]2ccccc2-c2cccc[n+]23)[n+]2ccccc2-c2cccc[n+]24)cc1` [Compound 3n, Bis(2,2′-bipiridine)[N-((thiophene-2-yl-κC^2)methyliden]-4-nitroaniline-κN]ruthenium(II) hexafluorophosphate]: 270 ± 4 nM, 3.6, 960 ± 100 nM, 2.0 and 530 ± 30 nM.
Consider `FC(F)(F)c1ccc([N+]2=Cc3scc[c]3[Ru-4]234([n+]2ccccc2-c2cccc[n+]23)[n+]2ccccc2-c2cccc[n+]24)cc1.F[P-](F)(F)(F)(F)F` [Compound 3o, Bis(2,2′-bipiridine)[N-((thiophene-2-yl-κC^2)methyliden]-4-(trifluoromethyl)aniline-κN]ruthenium(II) hexafluorophosphate], for which the half-inhibitory concentration (IC50) was determined as 96 ± 3 nM in assay [1] (72 h incubation), 150 ± 5 nM in assay [2] and 160 ± 30 nM in assay [3]. For the same molecule, in assay [3], the “Selectivity Index, SI” value is recorded as 1.7.

What is called IC50 is the concentration that gives 50% inhibition.
